pIC50: −log10 of the molar value.
Tests used:
[1] = biological target: T1, Mitogen-activated protein kinase 8 (Homo sapiens, UniProt P45983); assay: Inhibition of human recombinant histidine-tagged full-length JNK1 expressed in insect cells activated by GST-tagged MAP2K7 using ATF2 as substrate after 1 hr by luminescence plate reader analysis
[2] = biological target: T1, Mitogen-activated protein kinase 8; assay: Inhibition of JNK1 in human Jurkat cell lysates using desthiobiotin-tagged ATP probe AX9989 followed by trypsinization by LC/MS analysis
[3] = biological target: Mitogen-activated protein kinase 9 (Homo sapiens, UniProt P45984); assay: Inhibition of JNK2 in human Jurkat cell lysates using desthiobiotin-tagged ATP probe AX9989 followed by trypsinization by LC/MS analysis
Sequence of Mitogen-activated protein kinase 9 (P45984 whole entry): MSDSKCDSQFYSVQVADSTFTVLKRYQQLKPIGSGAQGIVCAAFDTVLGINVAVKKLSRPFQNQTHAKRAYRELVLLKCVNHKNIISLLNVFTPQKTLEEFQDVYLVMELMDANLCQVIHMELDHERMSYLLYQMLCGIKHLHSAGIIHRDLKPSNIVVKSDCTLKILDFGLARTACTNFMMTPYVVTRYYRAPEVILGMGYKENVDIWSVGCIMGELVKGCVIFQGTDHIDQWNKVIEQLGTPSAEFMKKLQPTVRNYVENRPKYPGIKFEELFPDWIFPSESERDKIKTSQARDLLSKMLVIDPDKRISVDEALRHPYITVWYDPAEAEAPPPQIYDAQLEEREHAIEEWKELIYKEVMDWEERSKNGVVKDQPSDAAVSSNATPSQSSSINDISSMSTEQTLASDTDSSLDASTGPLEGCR

T1 sequence (P45983 whole entry): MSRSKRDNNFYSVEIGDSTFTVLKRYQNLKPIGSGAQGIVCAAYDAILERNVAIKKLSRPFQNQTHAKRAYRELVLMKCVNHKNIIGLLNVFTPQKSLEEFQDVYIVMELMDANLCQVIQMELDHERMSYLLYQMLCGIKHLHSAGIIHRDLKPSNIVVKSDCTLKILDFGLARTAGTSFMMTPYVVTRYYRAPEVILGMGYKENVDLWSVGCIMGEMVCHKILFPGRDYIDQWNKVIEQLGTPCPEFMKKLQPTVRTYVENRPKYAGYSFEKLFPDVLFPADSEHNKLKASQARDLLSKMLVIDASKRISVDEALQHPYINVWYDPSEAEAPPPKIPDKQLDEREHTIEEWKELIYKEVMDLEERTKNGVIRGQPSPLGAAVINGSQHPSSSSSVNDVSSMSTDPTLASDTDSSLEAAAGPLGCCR

Row | pIC50 [1] | pIC50 [2] | pIC50 [3] | SMILES
1 | 5.77 | – | – | CC[C@H](NC(=O)c1ccc2nc(N[C@H]3CC[C@H](O)CC3)c3nccn3c2c1)c1ccccc1
2 | 5.10 | – | – | FC1(F)CCC(Nc2nc3ccccc3n3ccnc23)CC1
3 | 6.31 | – | – | O=C(NCc1ccccc1)c1ccc2c(c1)nc(N[C@H]1CC[C@H](O)CC1)c1nccn12
4 | 6.72 | 6.85 | < 6.72 | O=C(NC1(c2ccc(Cl)cc2)CC1)c1ccc2nc(N[C@H]3CC[C@H](O)CC3)c3nccn3c2c1
5 | 6.74 | – | – | O=C(NC1(c2ccccc2)CCCC1)c1ccc2nc(N[C@H]3CC[C@H](O)CC3)c3nccn3c2c1
6 | 5.82 | – | – | C[C@@H](NC(=O)c1ccc2c(c1)nc(N[C@H]1CC[C@H](O)CC1)c1nccn12)c1ccccc1
7 | 6.80 | 7.23 | < 6.72 | CCC(CC)(NC(=O)c1ccc2nc(N[C@H]3CC[C@H](O)CC3)c3nccn3c2c1)c1ccccc1
8 | 5.31 | – | – | O=C(N[C@@H](CO)c1ccccc1)c1ccc2nc(N[C@H]3CC[C@H](O)CC3)c3nccn3c2c1

The next lines start with the compound.

Row | SMILES | pIC50 [1] | pIC50 [2] | pIC50 [3]
9 | O=C(NCc1ccccc1)c1ccc2nc(N[C@H]3CC[C@H](O)CC3)c3nccn3c2c1 | 6.17 | – | –
10 | O=C(O)c1ccc2c(c1)nc(N[C@H]1CC[C@H](O)CC1)c1nccn12 | 5.82 | 7.09 | –
11 | COC[C@@H](NC(=O)c1ccc2nc(N[C@H]3CC[C@H](O)CC3)c3nccn3c2c1)c1ccccc1 | 6.16 | – | –
12 | N[C@H]1CC[C@H](Nc2nc3ccccc3n3ccnc23)CC1 | 5.77 | – | –
13 | O=C(NC(c1ccccc1)c1ccccc1)c1ccc2nc(N[C@H]3CC[C@H](O)CC3)c3nccn3c2c1 | 6.44 | – | –
14 | O[C@H]1CC[C@H](NC2=Nc3ccccc3N3CCN=C23)CC1 | 4.14 | – | –
15 | CS(=O)(=O)N[C@H]1CC[C@H](Nc2nc3ccccc3n3ccnc23)CC1 | 5.62 | – | –
16 | NC(=O)c1ccc2c(c1)nc(N[C@H]1CC[C@H](O)CC1)c1nccn12 | 5.38 | – | –
17 | O=C(N[C@H](CCO)c1ccccc1)c1ccc2nc(N[C@H]3CC[C@H](O)CC3)c3nccn3c2c1 | 6.21 | – | –
18 | CC(C)[C@@H](NC(=O)c1ccc2nc(N[C@H]3CC[C@H](O)CC3)c3nccn3c2c1)c1ccccc1 | 6.46 | – | –
19 | Cc1ccc(C2(NC(=O)c3ccc4nc(N[C@H]5CC[C@H](O)CC5)c5nccn5c4c3)CC2)cc1 | 6.60 | – | –
20 | O[C@H]1CC[C@H](Nc2nc3ccccc3n3cccc23)CC1 | < 4.00 | – | –
21 | O=C(NC1(c2ccccc2)CCCCC1)c1ccc2nc(N[C@H]3CC[C@H](O)CC3)c3nccn3c2c1 | 5.91 | – | –
22 | O=C(NC1(c2ccccc2)CCCCCC1)c1ccc2nc(N[C@H]3CC[C@H](O)CC3)c3nccn3c2c1 | 6.37 | – | –
